Test results from patent US12492188B2, “1H-benzo[D]imidazole derivatives as TLR9 inhibitors for the treatment of fibrosis” (BRISTOL-MYERS SQUIBB COMPANY, priority 2020, dated 2025).
Like-named read-outs stand apart in the source and are kept apart here.

Columns and labels:
Assay type in all cases: cell-based
human TLR7 = biological target: T1, human TLR7 (Homo sapiens, UniProt Q9NYK1); assay: TLR7 inhibition reporter assay (HEK-Blue cells, secreted embryonic alkaline phosphatase reporter); details: HEK-Blue cells overexpressing human TLR7, stimulated with gardiquimod 7.5 μM; read-out: TLR 7 IC50
T1 construct: host or cells: HEK-Blue cells (HEK293-derived reporter line)
T1 sequence (Q9NYK1 27-1049): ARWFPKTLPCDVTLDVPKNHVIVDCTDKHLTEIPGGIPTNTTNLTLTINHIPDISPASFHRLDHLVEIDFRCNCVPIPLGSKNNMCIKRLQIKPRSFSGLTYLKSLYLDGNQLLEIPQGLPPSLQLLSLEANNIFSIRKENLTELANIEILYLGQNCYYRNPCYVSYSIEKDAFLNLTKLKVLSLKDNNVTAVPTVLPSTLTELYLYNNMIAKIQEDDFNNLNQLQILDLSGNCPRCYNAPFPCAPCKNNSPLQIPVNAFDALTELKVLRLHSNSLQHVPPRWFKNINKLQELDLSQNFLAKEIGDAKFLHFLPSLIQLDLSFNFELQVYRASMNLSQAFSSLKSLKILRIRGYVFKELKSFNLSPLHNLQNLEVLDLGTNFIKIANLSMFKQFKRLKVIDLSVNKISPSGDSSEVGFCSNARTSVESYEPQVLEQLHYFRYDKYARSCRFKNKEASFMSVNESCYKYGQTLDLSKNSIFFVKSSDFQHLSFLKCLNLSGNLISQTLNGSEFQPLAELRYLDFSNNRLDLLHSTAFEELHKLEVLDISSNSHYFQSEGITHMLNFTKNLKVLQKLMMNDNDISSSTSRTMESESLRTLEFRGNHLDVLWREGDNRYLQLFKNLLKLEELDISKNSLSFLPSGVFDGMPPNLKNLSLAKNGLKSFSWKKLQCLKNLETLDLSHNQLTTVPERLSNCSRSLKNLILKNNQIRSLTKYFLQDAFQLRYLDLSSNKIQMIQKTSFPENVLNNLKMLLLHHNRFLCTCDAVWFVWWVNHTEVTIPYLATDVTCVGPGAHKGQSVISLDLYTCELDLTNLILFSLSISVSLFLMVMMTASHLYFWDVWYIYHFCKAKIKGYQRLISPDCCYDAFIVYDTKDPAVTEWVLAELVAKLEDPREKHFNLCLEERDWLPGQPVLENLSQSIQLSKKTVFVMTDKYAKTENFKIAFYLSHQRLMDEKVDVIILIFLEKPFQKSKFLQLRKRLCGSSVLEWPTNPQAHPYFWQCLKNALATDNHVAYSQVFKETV
In short: (§1)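 Read-out is SEAP colour from HEK-Blue Detection medium after 22 h at 37 °C, converted to percent inhibition between agonist-plus-DMSO and reference-inhibitor wells. Receptor-overexpressing HEK-Blue cells received compound over 0.05 nM–50 μM for 30 min before agonist: gardiquimod 7.5 μM for TLR7, R848 15.9 μM for TLR8, ODN2006 5 nM for TLR9.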

human TLR8 = biological target: T2, human TLR8 (Homo sapiens, UniProt Q9NR97); assay: TLR8 inhibition reporter assay (HEK-Blue cells, secreted embryonic alkaline phosphatase reporter); details: HEK-Blue cells overexpressing human TLR8, stimulated with R848 15.9 μM; read-out: TLR 8 IC50
T2 construct: host or cells: HEK-Blue cells (HEK293-derived reporter line)
T2 sequence (Q9NR97 27-1041): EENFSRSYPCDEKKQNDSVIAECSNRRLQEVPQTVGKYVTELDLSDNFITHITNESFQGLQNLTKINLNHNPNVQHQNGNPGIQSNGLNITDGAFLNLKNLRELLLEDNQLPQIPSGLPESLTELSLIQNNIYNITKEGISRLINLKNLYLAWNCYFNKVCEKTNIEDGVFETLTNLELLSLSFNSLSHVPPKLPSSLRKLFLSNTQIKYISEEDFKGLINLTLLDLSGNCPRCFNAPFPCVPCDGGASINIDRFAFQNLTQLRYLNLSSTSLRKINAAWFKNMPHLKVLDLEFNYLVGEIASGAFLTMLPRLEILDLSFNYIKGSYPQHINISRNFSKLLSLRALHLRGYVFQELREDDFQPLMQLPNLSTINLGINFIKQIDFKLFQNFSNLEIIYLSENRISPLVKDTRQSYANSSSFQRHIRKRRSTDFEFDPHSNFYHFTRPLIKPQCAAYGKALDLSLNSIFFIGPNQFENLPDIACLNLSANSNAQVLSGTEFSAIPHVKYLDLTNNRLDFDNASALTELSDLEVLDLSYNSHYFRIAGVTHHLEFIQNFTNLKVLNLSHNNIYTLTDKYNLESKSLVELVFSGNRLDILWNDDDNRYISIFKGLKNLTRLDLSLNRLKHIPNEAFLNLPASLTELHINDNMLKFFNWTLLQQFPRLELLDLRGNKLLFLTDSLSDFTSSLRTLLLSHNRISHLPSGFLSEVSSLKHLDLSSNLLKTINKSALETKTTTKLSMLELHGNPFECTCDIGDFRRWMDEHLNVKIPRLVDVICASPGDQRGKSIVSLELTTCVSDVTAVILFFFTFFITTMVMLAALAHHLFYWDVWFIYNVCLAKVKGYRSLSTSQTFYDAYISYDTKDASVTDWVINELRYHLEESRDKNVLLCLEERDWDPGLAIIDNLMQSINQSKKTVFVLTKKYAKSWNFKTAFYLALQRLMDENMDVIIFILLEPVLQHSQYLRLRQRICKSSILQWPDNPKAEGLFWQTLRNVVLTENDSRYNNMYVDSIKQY
In short: as §1

human TLR9 = biological target: T3, human TLR9 (Homo sapiens, UniProt Q9NR96); assay: TLR9 inhibition reporter assay (HEK-Blue cells, secreted embryonic alkaline phosphatase reporter)
T3 construct: host or cells: HEK-Blue cells (HEK293-derived reporter line)
T3 sequence (Q9NR96 26-1032): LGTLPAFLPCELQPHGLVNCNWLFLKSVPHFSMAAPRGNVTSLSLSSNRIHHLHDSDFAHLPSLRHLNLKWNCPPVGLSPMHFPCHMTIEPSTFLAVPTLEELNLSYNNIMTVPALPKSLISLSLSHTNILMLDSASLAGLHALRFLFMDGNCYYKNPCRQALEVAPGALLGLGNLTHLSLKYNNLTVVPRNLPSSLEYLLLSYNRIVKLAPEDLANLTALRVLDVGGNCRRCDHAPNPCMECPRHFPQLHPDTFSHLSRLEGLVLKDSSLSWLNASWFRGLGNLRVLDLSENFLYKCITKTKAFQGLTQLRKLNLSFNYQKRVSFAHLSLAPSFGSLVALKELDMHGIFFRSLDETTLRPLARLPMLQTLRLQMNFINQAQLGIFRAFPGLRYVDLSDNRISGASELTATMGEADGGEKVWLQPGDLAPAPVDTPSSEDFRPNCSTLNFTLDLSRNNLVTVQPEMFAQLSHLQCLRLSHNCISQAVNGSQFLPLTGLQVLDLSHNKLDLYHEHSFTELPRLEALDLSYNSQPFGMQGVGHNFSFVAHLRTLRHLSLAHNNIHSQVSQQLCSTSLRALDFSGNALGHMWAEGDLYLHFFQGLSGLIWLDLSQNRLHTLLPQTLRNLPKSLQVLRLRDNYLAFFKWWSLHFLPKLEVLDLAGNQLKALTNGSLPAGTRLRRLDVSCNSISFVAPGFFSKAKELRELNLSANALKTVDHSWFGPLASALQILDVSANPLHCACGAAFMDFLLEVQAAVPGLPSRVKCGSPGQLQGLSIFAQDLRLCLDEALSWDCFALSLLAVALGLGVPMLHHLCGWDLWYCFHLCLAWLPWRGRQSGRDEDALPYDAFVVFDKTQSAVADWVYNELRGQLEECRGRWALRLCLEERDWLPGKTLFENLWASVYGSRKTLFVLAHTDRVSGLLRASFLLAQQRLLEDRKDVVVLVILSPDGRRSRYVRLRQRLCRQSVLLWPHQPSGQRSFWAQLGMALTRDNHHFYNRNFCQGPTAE
In short: as §1

[1] = HEK-Blue cells overexpressing human TLR9, stimulated with ODN2006 5 nM, read-out: TLR 9 IC50
[2] = HEK-Blue human TLR9 reporter cells

Cn1c(-c2ccc(S(C)(=O)=O)cc2)nc2ccc(C3CCN(C4CCCN(C5CCOCC5)CC4)CC3)c(F)c21 (centres unmarked) [Example 316, 7-fluoro-1-methyl-2-(4-(methylsulfonyl)phenyl)-6-(1-(1-(tetrahydro-2H-pyran-4-yl)azepan-4-yl)piperidin-4-yl)-1H-benzo[d]imidazole]
IC50 (human TLR7): > 50000 nM
IC50 (human TLR8): 16700 nM
IC50 (human TLR9; [1]): 14 nM
IC50 (human TLR9; [2]): 14 nM

Cc1cc(C2CCN(C3CCN(c4ccccc4)CC3)CC2)cc2c1nc(-c1ccc(S(C)(=O)=O)cc1)n2C [Example 318, 1,4-dimethyl-2-(4-(methylsulfonyl)phenyl)-6-(1′-phenyl-[1,4′-bipiperidin]-4-yl)-1H-benzo[d]imidazole]
IC50 (human TLR7): 10200 nM
IC50 (human TLR8): > 50000 nM
IC50 (human TLR9; [1]): 269 nM
IC50 (human TLR9; [2]): 270 nM

CC(C)CN1CCC(N2CCC(c3cc(F)c4nc(-c5ccc(S(C)(=O)=O)cc5)n(C5CC5)c4c3)CC2)CC1 [Example 319, 1-cyclopropyl-4-fluoro-6-(1′-isobutyl-[1,4′-bipiperidin]-4-yl)-2-(4-(methylsulfonyl)phenyl)-1H-benzo[d]imidazole]
IC50 (human TLR7): 1400 nM
IC50 (human TLR8): > 50000 nM
IC50 (human TLR9; [1]): 94 nM
IC50 (human TLR9; [2]): 94 nM

CS(=O)(=O)c1ccc(-c2nc3c(F)cc(C4CCN(C5CCN(C6CCOCC6)CC5)CC4)cc3n2C2CC2)cc1 [Example 321, 1-cyclopropyl-4-fluoro-2-(4-(methylsulfonyl)phenyl)-6-(1′-(tetrahydro-2H-pyran-4-yl)-[1,4′-bipiperidin]-4-yl)-1H-benzo[d]imidazole]
IC50 (human TLR7): 1900 nM
IC50 (human TLR8): > 50000 nM
IC50 (human TLR9; [1]): 36 nM
IC50 (human TLR9; [2]): 36 nM

CS(=O)(=O)c1ccc(-c2nc3c(F)cc(C4CCN(C5CC6CCC(C5)N6C5CCOCC5)CC4)cc3n2C2CC2)cc1 (centres unmarked) [Example 328, 1-cyclopropyl-4-fluoro-2-(4-(methylsulfonyl)phenyl)-6-(1-(8-(tetrahydro-2H-pyran-4-yl)-8-azabicyclo[3.2.1]octan-3-yl)piperidin-4-yl)-1H-benzo[d]imidazole]
IC50 (human TLR7): 2300 nM
IC50 (human TLR8): > 50000 nM
IC50 (human TLR9; [1]): 12 nM
IC50 (human TLR9; [2]): 12 nM

CS(=O)(=O)c1ccc(-c2nc3c(F)cc(C4CCN(C5CC6CCC(C5)N6C5CCOCC5)CC4)cc3n2C2CC2)cc1 (centres unmarked) [Example 329, 1-cyclopropyl-4-fluoro-2-(4-(methylsulfonyl)phenyl)-6-(1-(8-(tetrahydro-2H-pyran-4-yl)-8-azabicyclo[3.2.1]octan-3-yl)piperidin-4-yl)-1H-benzo[d]imidazole]
IC50 (human TLR7): 1200 nM
IC50 (human TLR8): > 50000 nM
IC50 (human TLR9; [1]): 28 nM
IC50 (human TLR9; [2]): 28 nM

Cc1cc(C2CCN(C3CC4CCC(C3)N4C(C)C)CC2)cc2[nH]c(-c3ccc(S(C)(=O)=O)cc3)nc12 (centres unmarked) [Example 332, 6-(1-(8-isopropyl-8-azabicyclo[3.2.1]octan-3-yl)piperidin-4-yl)-4-methyl-2-(4-(methylsulfonyl)phenyl)-1H-benzo[d]imidazole]
IC50 (human TLR7): > 50000 nM
IC50 (human TLR8): > 50000 nM
IC50 (human TLR9; [1]): 172 nM
IC50 (human TLR9; [2]): 170 nM

Cc1cc(C2CCN(C3CC4CCC(C3)N4C(C)C)CC2)cc2[nH]c(-c3ccc(S(C)(=O)=O)cc3)nc12 (centres unmarked) [Example 333, 6-(1-(8-isopropyl-8-azabicyclo[3.2.1]octan-3-yl)piperidin-4-yl)-4-methyl-2-(4-(methylsulfonyl)phenyl)-1H-benzo[d]imidazole]
IC50 (human TLR7): > 50000 nM
IC50 (human TLR8): > 50000 nM
IC50 (human TLR9; [1]): 329 nM
IC50 (human TLR9; [2]): 330 nM

Cc1cc(C2CCN(C3CC4CCC(C3)N4C3CCC3)CC2)cc2[nH]c(-c3ccc(S(C)(=O)=O)cc3)nc12 (centres unmarked) [Example 334, 6-(1-(8-cyclobutyl-8-azabicyclo[3.2.1]octan-3-yl)piperidin-4-yl)-4-methyl-2-(4-(methylsulfonyl)phenyl)-1H-benzo[d]imidazole]
IC50 (human TLR7): > 50000 nM
IC50 (human TLR8): > 50000 nM
IC50 (human TLR9; [1]): 296 nM
IC50 (human TLR9; [2]): 300 nM

Cc1cc(C2CCN(C3CC4CCC(C3)N4CC3CC3)CC2)cc2[nH]c(-c3ccc(S(C)(=O)=O)cc3)nc12 (centres unmarked) [Example 335, 6-(1-(8-(cyclopropylmethyl)-8-azabicyclo[3.2.1]octan-3-yl)piperidin-4-yl)-4-methyl-2-(4-(methylsulfonyl)phenyl)-1H-benzo[d]imidazole]
IC50 (human TLR7): > 50000 nM
IC50 (human TLR8): > 50000 nM
IC50 (human TLR9; [1]): 130 nM
IC50 (human TLR9; [2]): 130 nM

Cc1cc(C2CCN(C3CC4CCC(C3)N4CC3CC3)CC2)cc2[nH]c(-c3ccc(S(C)(=O)=O)cc3)nc12 (centres unmarked) [Example 336, 6-(1-(8-(cyclopropylmethyl)-8-azabicyclo[3.2.1]octan-3-yl)piperidin-4-yl)-4-methyl-2-(4-(methylsulfonyl)phenyl)-1H-benzo[d]imidazole]
IC50 (human TLR7): 25400 nM
IC50 (human TLR8): > 50000 nM
IC50 (human TLR9; [1]): 77 nM
IC50 (human TLR9; [2]): 77 nM
